Values of other authors, collected in publication PMC6699497 (Drug Design, Development and Therapy, 2019).

Legend:
[1] = rat
[2] = species not given
[3] = previous study compared with present value

oral bioavailability [1]: 42–53%
Cmax [1, 3]: 326.00 ng/mL
t1/2 [1, 3]: 1.40 h
plasma protein binding fraction [2]: 88–95%
SMILES: CNC(=O)c1c(C)oc2cc(Oc3ncnc4cc(OC)c(OC)cc34)ccc12 [Fruquintinib, 6-(6,7-dimethoxyquinazolin-4-yloxy) - N,2-dimethylbenzofuran-3-carboxamide]
